Results: patent US20250381198A1 (Melt Pharmaceuticals, Inc., priority 2024, published 2025)

Tests used:
Assay type in all cases: in vivo, human
[1] = test system: subjects undergoing cataract extraction with lens replacement (CELR); assay: Phase 2: subjects achieving analgesia response (NPRS < 4); details: Full Analysis Set; for Subjects achieving analgesia response (observed): Yes: NPRS < 4 at the available four intraoperative timepoints
Procedure: The number of subjects achieving analgesia response (observed) in the full analysis set was determined. Success in analgesia response was defined as NPRS<4 at the available at the available four intraoperative timepoints and a failure otherwise (e.g., any interoperative pain rescue was assumed to be a failure. Results are provided in TABLE 25. The number of subjects completing the surgery is provided in TABLE 26, and the number of subjects completing the surgery without interruption is provided in TABLE 27. For this measure, subjects completing the surgery without interruption (other than rescue medication) due to pain or anxiety were considered successes. The number of subjects requiring rescue sedative medication and those requiring analgesic medication are provided in TABLES 28 and 29, respectively. For all TABLES 25-29, p-Values between pairs of treatments were calculated and are provided.

healthy adult subjects [2] = assay: Phase 1 pharmacodynamics: sedation by Ramsay sedation scale (RSS); details: for Subjects with RSS score of 2: 5 minutes after administration
Procedure: Pharmacodynamic parameters included sedation, defined as time to onset of sedation and sedation level, assessed using the Ramsay sedation scale (RSS), and cardiodynamics assessed by QTcF, heart rate, and PR and QRS intervals, and T-wave morphology and U-wave presence, extracted from ECGs collected via Holter monitor from predose through 24 hours postdose.
All pharmacodynamic analyses were performed on data from the Safety Population. The RSS scores were summarized by treatment and by timepoint. Time to onset of sedation was summarized by treatment and presented graphically.

healthy adult subjects [3] = assay: Phase 1 safety: adverse events, vital signs, laboratory values, ECG, oral cavity examination, neurocognitive assessment (SPMSQ); details: for Mean changes from baseline in systolic and diastolic blood pressures: MELT-100 3/25 mg and 6/25 mg, each timepoint
Procedure: The Investigator evaluated safety using physical and oral examinations, O2 saturation (SpO2), vital sign measurements, clinical laboratory evaluations, electrocardiograms (ECGs), reported or observed adverse events (AEs), and assessments of neurocognitive function. Subjects were monitored for any AEs from the first dose through the end of the study.
All safety analyses were performed on data from the Safety Population. All quantitative safety data were tabulated with descriptive summary statistics, including the following: arithmetic mean, SD, median, minimum value, maximum values, and number of non-missing observations (n).
Frequency counts and percentage were provided for categorical data. Data were summarized by treatment sequence, treatment, and/or overall, as applicable. All observed baseline/predose and postdose values were summarized by treatment when data were available. Additionally, the corresponding change from baseline/predose assessment to each postdose assessment were also summarized by treatment. All tabulations involving change from baseline/predose comparisons included only those subjects with data at both the baseline/predose and postdose assessments.
Adverse events were coded using the Medical Dictionary for Regulatory Activities (MedDRA, version 22.0, or later) terms and summarized by system organ class (SOC) and preferred term (PT) within SOC. The number and percentage of subjects reporting TEAEs were summarized by reported SOC and PT for each treatment and the population overall. TEAEs were also summarized by maximum severity and nearest relationship to study drug, by SOC and PT for each treatment.
A by-subject AE (including treatment-emergent) data listing, including but not limited to verbatim term, SOC, PT, severity, and relationship to study treatment, was provided. Deaths, SAEs, and other significant AEs, including those leading to early termination of study treatments were listed.
Vital signs, clinical laboratory values (hematology, serum chemistry, and urinalysis), and 12-lead ECG parameters were summarized by treatment including any abnormal values flagged.
Physical examination and oral cavity examination data at each evaluation were listed. […] Weight and height were summarized. Neurocognitive assessments for each evaluation were listed.

[4] = test system: subjects undergoing cataract extraction with lens replacement (CELR); assay: Phase 3: surgeon satisfaction (5-point Likert scale); design: key to Surgeon Satisfaction Scores, Min / Surgeon Satisfaction Scores, Max: 5=very satisfied; 4=satisfied; 3=neither satisfied nor dissatisfied; 2=dissatisfied; 1=very dissatisfied; details: ITT analysis set
Procedure: Surgeon satisfaction with the operative experience was measured postoperatively on Day 1 using a 5-point Likert scale (5=very satisfied; 4=satisfied; 3=neither satisfied nor dissatisfied; 2=dissatisfied; 1=very dissatisfied). […] The means were compared using 2-sample t-tests and the Satterthwaite method. The proportion of satisfied responses (‘Very Satisfied’ or ‘Satisfied’, pooled) were tested using a Pearson's chi-square test; and a Fisher's exact test was used instead if any expected values were <5.

[5] = test system: subjects undergoing cataract extraction with lens replacement (CELR); assay: Phase 3: preoperative procedural sedation responders (second key secondary); details: for Preoperative procedural sedation responder - n: number of subjects
[6] = test system: subjects undergoing cataract extraction with lens replacement (CELR); assay: Phase 3: requirement for rescue sedation medication (first key secondary); details: for Requirement for rescue sedation medication - n: number of subjects
Procedure: Analysis of the first key secondary analysis of requirement for rescue sedation medication was performed. Requirement for rescue sedation medication was defined as a subject that received rescue sedation medication during the preoperative or intraoperative period. Group comparisons and statistics were analogous to those for TABLES 42-44.

[7] = test system: subjects undergoing cataract extraction with lens replacement (CELR); assay: Phase 3: rescue sedation medication use preoperatively and intraoperatively
Text: A secondary analysis of rescue sedation medication use (both preoperatively and intraoperatively) for the ITT analysis set is shown in TABLE 51.

[8] = 5-minute postdose timepoint, ketamine 18 mg IV
[9] = midazolam 3.5 mg IV, ketamine 18 mg IV
[10] = ITT Analysis Set, number of subjects

SMILES: CNC1(c2ccccc2Cl)CCCCC1=O (centres unmarked) [Ketamine, 2-(2-chlorophenyl)-2-(methylamino)cyclohexanone]
- Subjects achieving analgesia response (observed): No [1]: 40 (50.6) n (%)
- Subjects achieving analgesia response (observed): Yes [1]: 39 (49.4) n (%)
- Subjects with RSS score of 1 (healthy adult subjects [2]; [8]): 4.0%
- Subjects with RSS score of 5 (healthy adult subjects [2]; [8]): 4.0%
- Subjects with RSS score of 2 (healthy adult subjects [2]; [9]): 92.0%
- Highest proportion of subjects with RSS scores >2 postdose (healthy adult subjects [2]; [9]): ~8%
- Mean changes from baseline in systolic and diastolic blood pressures (healthy adult subjects [3]; [9]): highest at the 10-minute timepoint
- Treatment-related AEs of hypertension, number (healthy adult subjects [3]; ketamine 18 mg IV): 3

SMILES: Cc1ncc2n1-c1ccc(Cl)cc1C(c1ccccc1F)=NC2 [Midazolam, 8-chloro-6-(2-fluorophenyl)-1-methyl-4H-imidazo[1,5-a][1,4]benzodiazepine]
- Surgeon Satisfaction Scores, Max ([4]; 5-point Likert scale): 5
- Surgeon Satisfaction Scores, Mean ± SD ([4]; 5-point Likert scale): 4.8 ± 0.56
- Surgeon Satisfaction Scores, Median ([4]; 5-point Likert scale): 5.0
- Surgeon Satisfaction Scores, Min ([4]; 5-point Likert scale): 2
- Surgeon Satisfaction Score 1 = Very Dissatisfied [4]: 0 n
- Subjects achieving analgesia response (observed): No [1]: 48 (59.3) n (%)
- Subjects achieving analgesia response (observed): Yes [1]: 33 (40.7) n (%)
- Subjects with RSS scores of 3 (healthy adult subjects [2]; 5-minute postdose timepoint, midazolam 3.5 mg IV): 8.3%
- Subjects with RSS score of 2 (healthy adult subjects [2]; [9]): 91.7%
- Highest proportion of subjects with RSS scores >2 postdose (healthy adult subjects [2]; [9]): ~54%
- PR duration (one subject) (healthy adult subjects [3]; 24 hours after midazolam 3.5 mg IV in Period 4, not considered clinically significant): abnormal
- Mean changes from baseline in systolic and diastolic blood pressures (healthy adult subjects [3]; [9]): minimal and similar
- Subjects with treatment-related AEs (healthy adult subjects [3]; midazolam 3.5 mg IV): 8.3%
- Treatment-related AEs, number of events (healthy adult subjects [3]; midazolam 3.5 mg IV): 2 events
- Mean change from baseline in pulse oximetry (healthy adult subjects [3]; midazolam 3.5 mg IV at 10-minute postdose, MELT-100 6/50 mg at 30-minute postdose): small mean decrease from baseline
- Preoperative procedural sedation responder - % ([5]; All-Treated Analysis Set): 73.0%
- Preoperative procedural sedation responder - n ([5]; All-Treated Analysis Set): 65
- Preoperative procedural sedation responder - % ([5]; ITT Analysis Set): 73.0%
- Preoperative procedural sedation responder - n ([5]; ITT Analysis Set): 65
- Preoperative procedural sedation responders ([5]; ITT analysis set): 73.0%
- Preoperative procedural sedation responder - % ([5]; PP Analysis Set): 73.0%
- Preoperative procedural sedation responder - n ([5]; PP Analysis Set): 65
- Preoperative procedural sedation responders ([5]; PP analysis set): 73.0%
- Preoperative procedural sedation responders ([5]; all-treated analysis set): 73.0%
- Requirement for rescue sedation medication - % ([6]; All-Treated Analysis Set): 33.7%
- Requirement for rescue sedation medication - n ([6]; All-Treated Analysis Set): 30
- Requirement for rescue sedation medication - % ([6]; ITT Analysis Set): 33.7%
- Requirement for rescue sedation medication - n ([6]; ITT Analysis Set): 30
- Subjects who required rescue sedation medication ([6]; ITT analysis set, preoperative or intraoperative period): 33.7%
- Requirement for rescue sedation medication - % ([6]; PP Analysis Set): 33.7%
- Requirement for rescue sedation medication - n ([6]; PP Analysis Set): 30
- Subjects who required rescue sedation medication ([6]; PP analysis set): 33.7%
- Subjects who required rescue sedation medication ([6]; all-treated analysis set): 33.7%
- Received intraoperative rescue sedation medication - % ([7]; ITT Analysis Set): 16.9%
- Received preoperative rescue sedation medication - % ([7]; ITT Analysis Set): 18.0%
- Received intraoperative rescue sedation medication - n [7, 10]: 15
- Received preoperative rescue sedation medication - n [7, 10]: 16
- Subjects who received intraoperative rescue sedation medication ([7]; ITT analysis set): 16.9%
- Subjects who received preoperative rescue sedation medication ([7]; ITT analysis set): 18.0%
